Assays:
[1] = test system: seizures in study strain rats; test: Preliminary determination of the epileptogenic ED50 of pentylenetetrazol; type: in vivo; settings: Rattus norvegicus, ip, read-out: ED50 (dose effective on 50% of rats) of the epileptogenic agent, i.p., preliminary experiment
[2] = test system: amphetamine-induced hyperactivity and risk-taking behaviour; test: Amphetamine-induced behavioural model of mania, open field test in rats; settings: sodium valproate 20 mg/kg i.p., short times, preliminary experiment
[3] = test system: pentylenetetrazol-induced major motor seizures; test: Pentylenetetrazol (100 mg/kg i.p.)-induced seizures in rats (Example 4); type: in vivo, rat
Description: At the end, all the groups were treated with 100 mg/kg i.p. of pentylenetetrazol, and the animals underwent the following control exams: 1) length of latency period to the first major motor seizures (tonic-clonic contractions of the limbs, trunk and head; falling; saliva and blood discharge from the mouth); 2) number of rats responding with major motor seizures (or protected from seizure); 3) mean duration of the major motor seizure (MMS); 4) number of rats presenting minor clonic contractions (MCC), such as a sudden flexion of the forelegs or extension of the rear legs; 5) number of rats who died within 20 minutes or 5 hours after pentylenetetrazol injection.

[4] = daily i.p. 2 weeks: n-3 50 mg/kg, clonazepam 5 mg/kg, or same doses combined, then pentylenetetrazol 100 mg/kg i.p., mean ± SD

Q: `C1CCc2nnnn2CC1` [pentylenetetrazol] was tested. Which ED50 [1] did it give?
A: The ED50 was 70 to 75 mg/kg.

Q: `CCCC(CCC)C(=O)[O-].[Na+]` [sodium valproate] was tested. Which “effect of valproate alone at the dose used in the combination” value [2] did it give?
A: The value was “ineffective when taken alone”.

Q: Which results are given for `O=C1CN=C(c2ccccc2Cl)c2cc([N+](=O)[O-])ccc2N1` [clonazepam]?
A: Duration of seizures [3, 4]: 25 ± 6 s; Latency to seizures [3, 4]: 203 ± 12 s; Dead animals <20′ ([3]; died within 20 minutes after pentylenetetrazol injection, n/10): 2/10; Dead animals <5 h ([3]; died within 5 hours after pentylenetetrazol injection, n/10): 4/10; Rats with MMS (n/tot) ([3]; major motor seizures, same treatment, pentylenetetrazol 100 mg/kg i.p.): 1/10; Rats with MCC (n/tot) ([3]; minor clonic contractions, same treatment, pentylenetetrazol 100 mg/kg i.p.): 3/10
